The values that follow come from US20250100996A1, “HETEROCYCLOALKYL AND HETEROARYL COMPOUNDS AND PHARMACEUTICAL COMPOSITIONS THAT MODULATE IKZF2” (Plexium, Inc., priority 2021, published 2025).

Structures are written as SMILES. pEC50: −log10 of the molar value. Where only a bound is given, the exact number is not on record here.

One assay deals with T1, IKZF3 (Aiolos) (Homo sapiens, UniProt Q9UKT9).
T1 construct: Leu-Asp junction (codons ctcgac before the linker); mScarlet (behind P2A) (C, cleaved yes); expressed in transfected cells
T1 sequence (Q96SW2 whole entry partner): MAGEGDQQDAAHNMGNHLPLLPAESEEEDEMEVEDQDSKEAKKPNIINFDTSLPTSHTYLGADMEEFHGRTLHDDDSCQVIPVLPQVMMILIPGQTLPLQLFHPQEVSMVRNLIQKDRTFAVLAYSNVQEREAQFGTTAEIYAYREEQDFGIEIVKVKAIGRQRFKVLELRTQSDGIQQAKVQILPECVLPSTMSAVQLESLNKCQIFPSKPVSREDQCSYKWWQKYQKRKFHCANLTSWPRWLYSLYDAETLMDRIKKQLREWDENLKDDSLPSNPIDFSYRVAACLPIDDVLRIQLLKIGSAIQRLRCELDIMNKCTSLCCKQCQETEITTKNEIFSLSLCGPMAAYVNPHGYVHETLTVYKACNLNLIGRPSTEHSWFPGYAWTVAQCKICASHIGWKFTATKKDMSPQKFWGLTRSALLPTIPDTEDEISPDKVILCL
T1 sequence (Q16531 whole entry partner): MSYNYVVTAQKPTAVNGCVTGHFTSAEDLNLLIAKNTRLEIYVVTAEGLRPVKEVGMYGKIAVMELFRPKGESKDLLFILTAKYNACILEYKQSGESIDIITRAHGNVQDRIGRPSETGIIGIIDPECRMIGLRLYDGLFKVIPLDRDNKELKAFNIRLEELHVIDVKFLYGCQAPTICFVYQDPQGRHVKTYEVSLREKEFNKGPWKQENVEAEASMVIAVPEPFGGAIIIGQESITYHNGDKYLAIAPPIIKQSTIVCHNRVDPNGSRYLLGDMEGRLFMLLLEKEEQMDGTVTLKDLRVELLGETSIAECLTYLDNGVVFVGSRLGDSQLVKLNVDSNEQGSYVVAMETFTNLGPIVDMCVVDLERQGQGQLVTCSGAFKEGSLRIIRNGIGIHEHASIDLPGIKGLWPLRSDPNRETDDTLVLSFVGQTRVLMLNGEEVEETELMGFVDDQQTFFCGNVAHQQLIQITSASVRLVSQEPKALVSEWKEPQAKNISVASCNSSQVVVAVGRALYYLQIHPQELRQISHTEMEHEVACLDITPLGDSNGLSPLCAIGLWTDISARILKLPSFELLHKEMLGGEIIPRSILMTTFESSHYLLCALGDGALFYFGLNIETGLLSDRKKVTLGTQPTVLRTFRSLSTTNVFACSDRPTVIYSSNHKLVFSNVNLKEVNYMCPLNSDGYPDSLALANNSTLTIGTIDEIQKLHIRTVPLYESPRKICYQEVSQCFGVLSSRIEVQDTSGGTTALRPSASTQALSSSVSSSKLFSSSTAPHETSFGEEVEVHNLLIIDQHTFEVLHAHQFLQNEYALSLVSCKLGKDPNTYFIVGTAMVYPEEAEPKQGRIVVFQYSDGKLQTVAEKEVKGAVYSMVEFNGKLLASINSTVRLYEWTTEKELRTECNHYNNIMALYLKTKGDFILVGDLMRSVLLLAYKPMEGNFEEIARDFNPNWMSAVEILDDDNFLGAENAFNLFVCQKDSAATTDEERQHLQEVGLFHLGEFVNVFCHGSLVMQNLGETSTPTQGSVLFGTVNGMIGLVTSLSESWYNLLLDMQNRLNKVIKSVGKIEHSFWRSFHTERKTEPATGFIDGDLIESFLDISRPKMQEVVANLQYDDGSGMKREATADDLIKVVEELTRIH
T1 sequence (Q9UKT9 whole entry): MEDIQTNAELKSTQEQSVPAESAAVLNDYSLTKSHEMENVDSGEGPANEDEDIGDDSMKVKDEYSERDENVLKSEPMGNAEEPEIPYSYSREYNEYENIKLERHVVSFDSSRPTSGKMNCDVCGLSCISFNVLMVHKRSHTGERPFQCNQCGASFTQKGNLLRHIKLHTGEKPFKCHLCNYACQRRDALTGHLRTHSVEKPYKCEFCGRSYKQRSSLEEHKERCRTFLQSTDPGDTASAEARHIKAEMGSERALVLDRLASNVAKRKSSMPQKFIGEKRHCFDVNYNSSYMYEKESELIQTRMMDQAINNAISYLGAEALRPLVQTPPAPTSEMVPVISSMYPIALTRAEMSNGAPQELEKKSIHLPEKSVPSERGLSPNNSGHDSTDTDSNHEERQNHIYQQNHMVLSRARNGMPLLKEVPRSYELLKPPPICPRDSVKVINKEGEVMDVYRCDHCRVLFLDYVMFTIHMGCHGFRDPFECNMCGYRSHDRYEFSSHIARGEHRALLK
As to the kind of experiment: IKZF3 reporter degradation assay (HEK 293T IKZF3-mNeonGreen reporter cell line). Conditions: HEK 293T IKZF3-mNeonGreen reporter, 24 hours incubation. In kind it is cell-based. The method in brief: (§1)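 Cells were seeded overnight and then dosed with DMSO dilutions of compound. After 24 h, the plates were imaged live in the FITC and TRITC channels. The fraction of reporter-positive cells was plotted and fitted to a four-parameter logistic curve to give DC50.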

For assay [1], the target named is T2, human E3 ligase component cereblon (CRBN) (Homo sapiens, UniProt Q96SW2).
T2 construct: host or cells: HEK293T
T2 sequence (Q96SW2 whole entry): as the sequence (Q96SW2 whole entry partner) above
T2 sequence (Q16531 whole entry partner): as the sequence (Q16531 whole entry partner) above
Put plainly: Cereblon (CRBN) target engagement, NanoBRET TE Intracellular E3 Ligase Assay in transfected HEK-293T cells. Conditions: read-out: CRBN Binding EC50. The procedure, abridged:
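Tracer displacement was read as the 610/450 nm BRET signal after 2 h at 37° C with an 11-point dilution series, typically 10 μM to 100 pM. Live HEK-293T cells expressed NanoLuc fused N-terminal to human CRBN together with DDB1. IC50 was fitted with a four-parameter logistic model.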
In general terms: BRET reads energy transfer from a luciferase to a nearby fluorophore.

The target of assay [2] is T3, IKZF2 (Helios) (Homo sapiens, UniProt Q9UKS7).
T3 construct: Leu-Asp junction (codons ctcgac before the linker); mScarlet (behind P2A) (C, cleaved yes); expressed in transfected cells
T3 sequence (Q9UKS7 whole entry): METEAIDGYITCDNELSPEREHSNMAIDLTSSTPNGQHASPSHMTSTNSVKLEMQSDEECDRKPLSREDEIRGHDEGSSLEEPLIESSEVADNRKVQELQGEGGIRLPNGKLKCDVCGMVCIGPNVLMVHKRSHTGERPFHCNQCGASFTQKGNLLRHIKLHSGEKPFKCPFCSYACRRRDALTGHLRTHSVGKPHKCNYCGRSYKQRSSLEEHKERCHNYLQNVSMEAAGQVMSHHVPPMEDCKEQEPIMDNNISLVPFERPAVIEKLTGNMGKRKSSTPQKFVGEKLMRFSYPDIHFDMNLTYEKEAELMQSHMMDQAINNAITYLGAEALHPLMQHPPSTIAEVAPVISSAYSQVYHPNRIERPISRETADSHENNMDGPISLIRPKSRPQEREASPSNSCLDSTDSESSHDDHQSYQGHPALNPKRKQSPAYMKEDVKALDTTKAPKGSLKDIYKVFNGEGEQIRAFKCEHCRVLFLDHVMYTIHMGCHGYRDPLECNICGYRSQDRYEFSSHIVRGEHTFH
T3 sequence (Q96SW2 whole entry, further chain): as the sequence (Q96SW2 whole entry partner) above
T3 sequence (Q16531 whole entry partner): as the sequence (Q16531 whole entry partner) above
As to the kind of experiment: IKZF2 reporter degradation assay (HEK 293T IKZF2-mNeonGreen reporter cell line). Conditions: HEK 293T IKZF2-mNeonGreen reporter, 24 hours incubation. The class given is cell-based. The method in brief:
as §1

In assay [3] the target is T4, IKZF2 (Helios) (Homo sapiens, UniProt Q96SW2+Q9UKS7).
T4 construct: Leu-Asp junction (codons ctcgac before the linker); mScarlet (behind P2A) (C, cleaved yes); expressed in transfected cells
T4 sequence (Q9UKS7 whole entry): as the sequence (Q9UKS7 whole entry) above
T4 sequence (Q96SW2 whole entry): as the sequence (Q96SW2 whole entry partner) above
T4 sequence (Q16531 whole entry partner): as the sequence (Q16531 whole entry partner) above
Described as above. In kind it is cell-based. Conditions: @ 1 μM, HEK 293T IKZF2-mNeonGreen reporter, 24 hours incubation; for inhibition at 1 µM: HEK-293T, 24 h. The procedure, abridged:
as §1

Broadly, the DC50 is the concentration at which degradation of the target reaches its halfway point. Lower therefore signals a more potent degrader. As a reminder, the pEC50 is the negative decadic logarithm of the EC50, by convention in mol/L. For `O=C1CCC(N2Cc3cc(O[C@H]4CCCC[C@@H]4N4CC(c5ccc(C(F)(F)F)cn5)C4)ccc3C2=O)C(=O)N1` (single isomer, unassigned) [Compound 131-B], the “IKZF3 % Degradation @ 1 μM” value on IKZF3 (Aiolos) (@ 1 μM) was 34.3%. For the same compound, the DC50 worked out at 0.0414 µM at IKZF3 (Aiolos) and 5 nM on IKZF2 (Helios) [2]. Also, the pEC50 in assay [1] was 7.68. On IKZF2 (Helios) [3], the “IKZF2 % Degradation @ 1 μM” value is listed as 94.1%.
What is called inhibition is the relative decrease from the control value, in per cent. A higher inhibition goes with strong suppression. On to `O=C1CCC(N2Cc3cc(O[C@H]4CCCC[C@@H]4N4CC(c5ncc(C6CC6)cn5)C4)ccc3C2=O)C(=O)N1` (single isomer, unassigned) [Compound 134-B], for which the half-maximal degradation concentration (DC50) at IKZF3 (Aiolos) is above 30 µM; at IKZF2 (Helios) [2] it was 5 nM. Moreover, the pEC50 in assay [1] was 8.30. Moreover, the inhibition at 1 µM on IKZF2 (Helios) [3] was 70.4%.
`O=C1CCC(N2Cc3cc(O[C@H]4CCCC[C@@H]4N4CC(c5ncc(C6CC6)cn5)C4)ccc3C2=O)C(=O)N1` (single isomer, unassigned) [Compound 135-B]: the 50% degradation concentration (DC50) at IKZF3 (Aiolos) was above 30 µM; on IKZF2 (Helios) [2], 13 nM. Besides, the negative logarithm of the EC50 (pEC50) in assay [1] was 8.52. Also, at IKZF2 (Helios) [3], the “IKZF2 % Degradation @ 1 μM” value turned out to be 77.7%.
Turning to `O=C1CCC(N2Cc3cc(O[C@H]4CCCC[C@H]4N4CC(c5ccncc5)C4)ccc3C2=O)C(=O)N1` (single isomer, unassigned) [Compound 136-B], the DC50 on IKZF3 (Aiolos) is above 30 µM; at IKZF2 (Helios) [2], 30 nM. The pEC50 in assay [1] was 7.47. Further, at IKZF2 (Helios) [3], the “IKZF2 % Degradation @ 1 μM” value came to 61.4%.
Consider `CC(=O)N1CCC(C2CN([C@H]3CCCC[C@@H]3Oc3ccc4c(c3)CN(C3CCC(=O)NC3=O)C4=O)C2)CC1` (stereo partly drawn) [Compound 12-A, 3-(5-(((1S,2S)-2-(3-(1-acetylpiperidin-4-yl)azetidin-1-yl)cyclohexyl)oxy)-1-oxoisoindolin-2-yl)piperidine-2,6-dione], for which the figures for the DC50 at IKZF3 (Aiolos) and at IKZF2 (Helios) [2] were above 30 µM and 12 nM, respectively. Moreover, in assay [1], the pEC50 was 7.28. For the same compound, the inhibition at 1 µM against IKZF2 (Helios) [3] worked out at 83.1%.
Regarding `O=C1CCC(N2Cc3cc(O[C@H]4CCCC[C@@H]4N4CC(C5CCN(C(=O)c6ccccc6)CC5)C4)ccc3C2=O)C(=O)N1` (stereo partly drawn) [Compound 24-A, 3-(5-{[(1S,2S)-2-[3-(1-benzoylpiperidin-4-yl)azetidin-1-yl]cyclohexyl]oxy}-1-oxo-2,3-dihydro-1H-isoindol-2-yl)piperidine-2,6-dione], the results for the DC50 on IKZF3 (Aiolos) and at IKZF2 (Helios) [2] were above 30 µM and 6 nM, respectively. Also, the pEC50 in assay [1] is 7.89. At IKZF2 (Helios) [3], 1 µM produced 76.7% inhibition.
The matching figures for `CC1(C(=O)N2CCC(C3CN([C@H]4CCCC[C@@H]4Oc4ccc5c(c4)CN(C4CCC(=O)NC4=O)C5=O)C3)CC2)CCC1` (stereo partly drawn) [Compound 25-A, 3-(5-(((1S,2S)-2-(3-(1-(1-methylcyclobutane-1-carbonyl)piperidin-4-yl)azetidin-1-yl)cyclohexyl)oxy)-1-oxoisoindolin-2-yl)piperidine-2,6-dione]: above 30 µM, 1 nM, 8.40 and 84.4%.
The matching figures for `CC(C)(C)OC(=O)N1CCC(C2CN([C@H]3CCCC[C@@H]3Oc3ccc4c(c3)CN(C3CCC(=O)NC3=O)C4=O)C2)CC1` (stereo partly drawn) [Compound 26-A, tert-butyl 4-(1-((1S,2S)-2-((2-(2,6-dioxopiperidin-3-yl)-1-oxoisoindolin-5-yl)oxy)cyclohexyl)azetidin-3-yl)piperidine-1-carboxylate]: above 30 µM, 1 nM, 9.00 and 74.7%.
Regarding `CN(C)C(=O)C1CCN(c2ccc(CN3CCC(O)(c4ccc5c(c4)CN(C4CCC(=O)NC4=O)C5=O)CC3)cc2)CC1` (stereo not shown) [Compound 41-A, 1-(4-((4-(2-(2,6-dioxopiperidin-3-yl)-1-oxoisoindolin-5-yl)-4-hydroxypiperidin-1-yl)methyl)phenyl)-N,N-dimethylpiperidine-4-carboxamide], the DC50 at IKZF3 (Aiolos) came out at 0.456 µM; at IKZF2 (Helios) [2] it was 482 nM. The inhibition at 1 µM on IKZF3 (Aiolos) (HEK-293T, 24 h, @ 1 μM) was 18.1%; against IKZF2 (Helios) [3] it was 37.4%. For the same compound, the pEC50 in assay [1] is 6.21.
As for `O=C1CCC(N2Cc3cc(O[C@H]4CCCC[C@@H]4N4CC(C5CCN(C6CCC6)CC5)C4)ccc3C2=O)C(=O)N1` (stereo partly drawn) [Compound 56-A, 3-(5-(((1S,2S)-2-(3-(1-cyclobutylpiperidin-4-yl)azetidin-1-yl)cyclohexyl)oxy)-1-oxoisoindolin-2-yl)piperidine-2,6-dione], the results for the DC50 on IKZF3 (Aiolos) and on IKZF2 (Helios) [2] were above 30 µM and 30 nM, respectively. Also, the pEC50 in assay [1] is 7.30. For the same compound, at 1 µM the inhibition at IKZF2 (Helios) [3] was 60.8%.
The corresponding values for `O=C1CCC(N2Cc3cc(OC4CCCCC4N4CC(c5cccnn5)C4)ccc3C2=O)C(=O)N1` (stereo not shown) [Compound 142-B, 3-(1-oxo-5-((2-(3-(pyridazin-3-yl)azetidin-1-yl)cyclohexyl)oxy)isoindolin-2-yl)piperidine-2,6-dione] are above 30 µM, 605 nM, 6.78 and 31.5%.
Consider `O=C1CCC(N2Cc3cc(OC4CCCCC4N4CC(c5ccnnc5)C4)ccc3C2=O)C(=O)N1` (stereo not shown) [Compound 143-B, 3-(1-oxo-5-((2-(3-(pyridazin-4-yl)azetidin-1-yl)cyclohexyl)oxy)isoindolin-2-yl)piperidine-2,6-dione], for which the DC50 is above 30 µM at IKZF3 (Aiolos) and 581 nM on IKZF2 (Helios) [2]. Further, the pEC50 in assay [1] is 6.61. In addition, the inhibition at 1 µM against IKZF2 (Helios) [3] stood at 20.4%.
As to `O=C1CCC(N2Cc3cc(OC4CCCC4N4CC(c5ccc(C(F)(F)F)cn5)C4)ccc3C2=O)C(=O)N1` (stereo not shown) [Compound 147-B, 3-(1-oxo-5-((2-(3-(5-(trifluoromethyl)pyridin-2-yl)azetidin-1-yl)cyclopentyl)oxy)isoindolin-2-yl)piperidine-2,6-dione], the DC50 is above 30 µM at IKZF3 (Aiolos) and 130 nM on IKZF2 (Helios) [2]. Also, the pEC50 in assay [1] was 7.66. At IKZF2 (Helios) [3], this compound registered an inhibition at 1 µM of 28.6%.
The corresponding values for `O=C1CCC(N2Cc3cc(OC4CCCC4N4CC(c5c[nH]c6ccccc56)C4)ccc3C2=O)C(=O)N1` (stereo not shown) [Compound 181-B, 3-(5-((2-(3-(1H-indol-3-yl)azetidin-1-yl)cyclopentyl)oxy)-1-oxoisoindolin-2-yl)piperidine-2,6-dione] are above 30 µM, 34 nM, 7.89 and below 30%.
